Laboratory results as given in ChEMBL document CHEMBL1142178, “Lysostaphin-resistant variants of Staphylococcus aureus demonstrate reduced fitness in vitro and in vivo” (2007).

Assays:
Type in all cases: functional
Staphylococcus aureus [1] = assay: Antibacterial activity against methicillin-resistant Staphylococcus aureus MBT 5040
Staphylococcus aureus [2] = assay: Antibacterial activity against methicillin-resistant Staphylococcus aureus Col-LysoR
Staphylococcus aureus [3] = assay: Antibacterial activity against methicillin-resistant Staphylococcus aureus Col
Staphylococcus aureus [4] = assay: Antibacterial activity against methicillin-resistant Staphylococcus aureus MBT 5040-LysoR
Staphylococcus aureus [5] = assay: Antibacterial activity against methicillin-resistant Staphylococcus aureus MBT 5040 and Staphylococcus aureus MBT 5040-LysoR co-infected in CF1 mouse assessed as kidney infection after 7 days
Staphylococcus aureus [6] = assay: Antibacterial activity against methicillin-resistant Staphylococcus aureus Col in CF1 mouse assessed as kidney infection after 7 days
Staphylococcus aureus [7] = assay: Antibacterial activity against methicillin-resistant Staphylococcus aureus MBT 5040 in CF1 mouse assessed as kidney infection after 7 days
Staphylococcus aureus [8] = assay: Antibacterial activity against methicillin-resistant Staphylococcus aureus Col and Staphylococcus aureus Col-LysoR co-infected in CF1 mouse assessed as kidney infection after 7 days

Structure (SMILES): Cc1onc(-c2ccccc2)c1C(=O)N[C@@H]1C(=O)N2[C@@H]1SC(C)(C)[C@@H]2C(=O)[O-].[Na+]
- MIC (Staphylococcus aureus [1]): > 32 mg/L
- MIC (Staphylococcus aureus [2]): 0.25 mg/L
- MIC (Staphylococcus aureus [3]): > 32 mg/L
- MIC (Staphylococcus aureus [4]): 0.25 mg/L

Structure (SMILES): CCOc1ccc2ccccc2c1C(=O)N[C@@H]1C(=O)N2[C@@H]1SC(C)(C)[C@@H]2C(=O)O [NAFCILLIN]
- CFU (Staphylococcus aureus [5]): 9520
- CFU (Staphylococcus aureus [6]): 9960
- CFU (Staphylococcus aureus [7]): 5630
- CFU (Staphylococcus aureus [8]): 10780
